ChEMBL document CHEMBL1134914, “Acyl dipeptides as reversible caspase inhibitors. Part 1: initial lead optimization” (Bioorg Med Chem Lett, 2002)

Experiments:
Caspase-3 [1] = molecular target: T1, Caspase-3 (Homo sapiens, UniProt P42574); assay: Inhibitory concentration against caspase-3
T1 sequence (P42574 whole entry): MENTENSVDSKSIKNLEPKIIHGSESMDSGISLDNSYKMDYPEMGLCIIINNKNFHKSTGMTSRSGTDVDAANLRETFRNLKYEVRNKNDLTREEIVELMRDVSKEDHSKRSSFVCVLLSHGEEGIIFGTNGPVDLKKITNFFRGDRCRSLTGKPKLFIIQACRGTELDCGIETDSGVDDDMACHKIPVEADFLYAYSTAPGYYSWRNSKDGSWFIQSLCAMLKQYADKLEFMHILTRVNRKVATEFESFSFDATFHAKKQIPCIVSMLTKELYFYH

Caspase-3 [2] = molecular target: T1, Caspase-3; assay: Inhibitory concentration of compound required against Caspase-3 compared to acylated dipeptides
Caspase-6 [3] = molecular target: T2, Caspase-6 (Homo sapiens, UniProt P55212); assay: Inhibitory concentration required against caspase-6
T2 sequence (P55212 whole entry): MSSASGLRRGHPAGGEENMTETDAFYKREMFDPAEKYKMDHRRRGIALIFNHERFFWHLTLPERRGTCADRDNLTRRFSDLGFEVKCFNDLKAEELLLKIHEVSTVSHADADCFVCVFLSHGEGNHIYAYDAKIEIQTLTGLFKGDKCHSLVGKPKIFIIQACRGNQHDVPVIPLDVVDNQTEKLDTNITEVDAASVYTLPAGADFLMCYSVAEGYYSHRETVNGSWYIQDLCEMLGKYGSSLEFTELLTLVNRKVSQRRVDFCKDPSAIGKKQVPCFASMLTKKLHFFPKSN

Caspase-1 (Mus musculus) [4] = molecular target: Caspase-1 (Mus musculus) (UniProt P29452)
Caspase-6 [5] = molecular target: T2, Caspase-6; assay: Inhibitory concentration of compound required against Caspase-6 compared to acylated dipeptides
Caspase-7 [6] = molecular target: T3, Caspase-7 (Homo sapiens, UniProt P55210); assay: Inhibitory concentration against caspase-7
T3 sequence (P55210 whole entry): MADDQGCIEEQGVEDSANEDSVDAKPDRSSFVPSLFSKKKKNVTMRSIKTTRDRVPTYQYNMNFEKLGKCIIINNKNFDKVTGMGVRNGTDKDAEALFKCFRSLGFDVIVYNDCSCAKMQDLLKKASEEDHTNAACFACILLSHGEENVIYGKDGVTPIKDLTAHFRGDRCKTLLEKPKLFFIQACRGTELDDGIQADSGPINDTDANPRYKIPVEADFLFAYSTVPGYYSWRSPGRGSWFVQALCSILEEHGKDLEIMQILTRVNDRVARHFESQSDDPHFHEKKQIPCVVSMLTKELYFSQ

Caspase-8 [7] = molecular target: T4, Caspase-8 (Homo sapiens, UniProt Q14790); assay: Inhibitory concentration of compound required against Caspase-8 compared to acylated dipeptides
Caspase-8 [8] = molecular target: T4, Caspase-8; assay: Inhibitory concentration against caspase-8
Caspase-7 [9] = molecular target: T3, Caspase-7; assay: Inhibitory concentration of compound required against Caspase-7 compared to acylated dipeptides
Caspase-1 (Mus musculus) [10] = molecular target: Caspase-1 (Mus musculus) (UniProt P29452); assay: Inhibitory concentration of compound required against Caspase-1 compared to acylated dipeptides

T4 sequence (Q14790 217-374 limits assumed): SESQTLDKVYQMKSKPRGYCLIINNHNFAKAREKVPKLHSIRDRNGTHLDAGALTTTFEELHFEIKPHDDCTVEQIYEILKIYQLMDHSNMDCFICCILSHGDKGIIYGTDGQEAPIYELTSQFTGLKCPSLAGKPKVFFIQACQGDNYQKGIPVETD
T4 sequence (Q14790 385-479 limits assumed): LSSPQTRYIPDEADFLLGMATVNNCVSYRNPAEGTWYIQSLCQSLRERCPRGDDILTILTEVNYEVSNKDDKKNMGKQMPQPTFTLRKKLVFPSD
Caspase-1 (Mus musculus), sequence (P29452 whole entry, looked up): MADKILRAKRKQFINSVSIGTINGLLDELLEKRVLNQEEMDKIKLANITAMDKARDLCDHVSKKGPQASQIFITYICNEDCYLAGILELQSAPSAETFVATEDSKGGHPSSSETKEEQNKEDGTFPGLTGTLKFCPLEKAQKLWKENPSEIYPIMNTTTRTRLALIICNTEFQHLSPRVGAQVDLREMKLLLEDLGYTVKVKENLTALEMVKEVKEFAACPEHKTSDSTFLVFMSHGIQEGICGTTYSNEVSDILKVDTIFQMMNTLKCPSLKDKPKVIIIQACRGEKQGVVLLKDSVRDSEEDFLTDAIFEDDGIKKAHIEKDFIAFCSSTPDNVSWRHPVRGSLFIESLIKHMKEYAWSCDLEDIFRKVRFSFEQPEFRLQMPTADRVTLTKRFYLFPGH

SMILES | IC50 (Caspase-3 [1]) | IC50 (Caspase-3 [2]) | IC50 (Caspase-6 [3]) | IC50 (Caspase-1 (Mus musculus) [4]) | IC50 (Caspase-6 [5]) | IC50 (Caspase-7 [6]) | IC50 (Caspase-8 [7]) | IC50 (Caspase-8 [8]) | IC50 (Caspase-7 [9]) | IC50 (Caspase-1 (Mus musculus) [10])
CC(C)C[C@H](NC(=O)COc1ccc2ccccc2c1)C(=O)N[C@H]1CC(=O)OC1O (some centres undefined) | 0.944 µM | 0.94 µM | 18.6 µM | 10 µM | 18.6 µM | 8.87 µM | 10 µM | > 10 µM | 8.87 µM | 10 µM
CC(C)C[C@H](NC(=O)COc1c(Cl)cc(Cl)c2ccccc12)C(=O)N[C@H]1CC(=O)OC1O (some centres undefined) | 0.357 µM | – | 21.4 µM | 0.141 µM | – | 3.61 µM | – | 3.04 µM | – | –
CC(C)C[C@H](NC(=O)[C@H](CCC(=O)O)NC(=O)OCc1ccccc1)C(=O)N[C@H]1CC(=O)OC1O (some centres undefined) | – | 0.0023 µM | – | – | – | – | 0.03 µM | – | 0.01 µM | 0.0065 µM
CC(C)C[C@H](NC(=O)COc1ccc(-c2ccccc2)cc1)C(=O)N[C@H]1CC(=O)OC1O (some centres undefined) | 0.763 µM | – | 20.5 µM | 1.9 µM | – | 12 µM | – | 7.53 µM | – | –
CC(C)C[C@H](NC(=O)[C@H](Cc1ccccc1)NC(=O)OCc1ccccc1)C(=O)N[C@H]1CC(=O)OC1O (some centres undefined) | – | 0.137 µM | – | – | 2.53 µM | – | 8.7 µM | – | 0.68 µM | 0.043 µM
Cc1ccc2ccccc2c1OCC(=O)N[C@@H](CC(C)C)C(=O)N[C@H]1CC(=O)OC1O (some centres undefined) | 0.375 µM | – | 32.4 µM | 0.843 µM | – | 4.16 µM | – | 4.14 µM | – | –
CC(C)C[C@@H](NC(=O)OCc1ccccc1)C(=O)C[C@H]1CC(=O)OC1O (some centres undefined) | 3.47 µM | – | 14 µM | 18.8 µM | – | 21.9 µM | – | 50 µM | – | –
CC(=O)N[C@@H](C(=O)O)C(=O)N[C@@H](CCC(=O)O)C(=O)N[C@H](C(=O)N[C@H]1CC(=O)OC1O)C(C)C (some centres undefined) | – | 0.0035 µM | – | – | 0.01 µM | – | 0.08 µM | – | 0.01 µM | 0.05 µM
CC(C)C[C@H](NC(=O)Cc1ccc(-c2ccccc2)cc1)C(=O)N[C@H]1CC(=O)OC1O (some centres undefined) | 5.06 µM | – | > 10 µM | 7.43 µM | – | – | – | > 10 µM | > 10 µM | –
